Measured values from patent US10865216B2, “Tricyclic Gyrase inhibitors” (MERCK SHARP & DOHME CORP., priority 2012, dated 2020).
≈ marks a conversion by molar mass, not a printed value.

Assays:
Assay type in all cases: cell-based
E. coli ATCC 25922 = assay: MIC, E. coli ATCC 25922; details: for MIC Ec: Table 18, Ec; for EC8 MIC: Table 11, L = CH2; for EC8 MIC / MIC: EC8 not defined; for MIC: Escherichia coli, ATCC25922, Table 16, new R4 substituents, read-out: EC8 MIC
S. aureus ATCC 13709 = assay: MIC, S. aureus ATCC 13709; details: for MIC Sa: Table 18, Sa; for MIC: Staphylococcus aureus, ATCC13709, Table 16, new R4 substituents, read-out: SA MIC
P. aeruginosa ATCC 15692 = assay: MIC, P. aeruginosa ATCC 15692; details: Table 17; comparative, new species of R2
S. pneumoniae ATCC 51916 = assay: MIC, S. pneumoniae ATCC 51916; details: Table 17; comparative; Spn52 not defined
[1] = Table 11, compounds wherein L = CH2

Structure (SMILES) | MIC Ec (E. coli ATCC 25922) | MIC Sa (S. aureus ATCC 13709) | MIC (E. coli ATCC 25922) | MIC (S. aureus ATCC 13709) | other results
CNc1cc(F)c(F)c2c1[nH]c1nc(Oc3cnc(C(C)O)nc3)nc(N3CCC4(CCCC4N)C3)c12 (stereo not drawn) [Compound 10.112] | ≤ 0.5 µg/mL | ≤ 0.5 µg/mL |  |  | 
CNc1cc(F)cc2c1[nH]c1nc(Oc3cnc(C)nc3)nc(N3CCC(C(C)=O)C3)c12 (stereo not drawn) [Compound 10.113] | ≤ 0.5 µg/mL | ≤ 0.5 µg/mL |  |  | 
CNc1cc(F)cc2c1[nH]c1nc(Oc3cnc(C)nc3)nc(N3C[C@H]4C[C@@H]3C[C@H]4NCCO)c12 [Compound 10.114] | ≤ 0.5 µg/mL | ≤ 0.5 µg/mL |  |  | 
CNc1cc(F)cc2c1[nH]c1nc(Oc3cnc(C)nc3)nc(N3C[C@H]4C[C@@H]3C[C@H]4N(CCO)CCO)c12 [Compound 10.115] | 1 µg/mL (≈ 1.91 µM) | ≤ 0.5 µg/mL |  |  | 
CNc1cc(F)cc2c1[nH]c1nc(Oc3cnc([C@@H](C)O)nc3)nc(N3CCOCC3)c12 [Compound 10.116] | ≤ 0.5 µg/mL | ≤ 0.5 µg/mL |  |  | 
CNc1cc(F)cc2c1[nH]c1nc(Cc3cnn(C)c3)nc(N3C[C@H]4C[C@@H]3C[C@H]4N)c12 [drawing 1734] |  |  |  |  | EC8 MIC (E. coli ATCC 25922): 8 µg/mL; SA MIC (S. aureus ATCC 13709; [1]): 1 µg/mL
CNc1cc(F)cc2c1[nH]c1nc(Cc3cnc(C)nc3)nc(N3CC4C(N)C4C3)c12 (stereo not drawn) [drawing 1736] |  |  |  |  | EC8 MIC (E. coli ATCC 25922): 0.25 µg/mL; SA MIC (S. aureus ATCC 13709; [1]): ≤ 0.5 µg/mL
CNc1cc(F)cc2c1[nH]c1nc(Cc3cnc(C)nc3)nc(N3CC4C(N)C4C3)c12 (stereo not drawn) [drawing 1737] |  |  |  |  | EC8 MIC (E. coli ATCC 25922): 0.25 µg/mL; SA MIC (S. aureus ATCC 13709; [1]): ≤ 0.5 µg/mL
CNc1cc(F)cc2c1[nH]c1nc(Oc3cnc(C)nc3)nc(N3CC(N)C(C(=O)NCCN4CCOCC4)C3)c12 (stereo not drawn) [drawing 1823] |  |  | > 16 µg/mL | 16 µg/mL (≈ 28.3 µM) | 
CNc1cc(F)cc2c1[nH]c1nc(Oc3cnc4c(C)cnn4c3)nc(N3C[C@H]4C[C@@H]3C[C@H]4N)c12 [drawing 1831] |  |  |  |  | PA MIC (P. aeruginosa ATCC 15692): 0.5 µg/mL; Spn52 MIC (S. pneumoniae ATCC 51916): ≤ 0.001 µg/mL; SA MIC (S. aureus ATCC 13709; Table 17, comparative, new species of R2): ≤ 0.016 µg/mL

Now from value to compound, other results behind:

MIC Ec (E. coli ATCC 25922) | MIC Sa (S. aureus ATCC 13709) | MIC (E. coli ATCC 25922) | MIC (S. aureus ATCC 13709) | Structure (SMILES) | other results
≤ 0.5 µg/mL | ≤ 0.5 µg/mL |  |  | CNc1cc(F)cc2c1[nH]c1nc(Oc3cnc4cc[s+]([O-])c4c3)nc(N3CC4(CC[C@H]4N)C3)c12 (stereo partly drawn) [Compound 10.111] | 
≤ 0.5 µg/mL | ≤ 0.5 µg/mL |  |  | CNc1cc(F)cc2c1[nH]c1nc(Oc3cnc(C(C)OC)nc3)nc(N3CC4CC4C3)c12 (stereo not drawn) [Compound 10.117] | 
 |  | > 16 µg/mL | 8 µg/mL (≈ 15.7 µM) | CNc1cc(F)cc2c1[nH]c1nc(Oc3cnc(C)nc3)nc(N3CC(N)C(C(=O)NCC(C)O)C3)c12 (stereo not drawn) [drawing 1822] | 
 |  | > 16 µg/mL | ≤ 0.5 µg/mL | CNc1cc(F)cc2c1[nH]c1nc(Oc3cnc(C)nc3)nc(N3CC(N)C(C(F)(F)F)C3)c12 (stereo not drawn) [drawing 1824] | 
 |  | 1 µg/mL (≈ 2.14 µM) | ≤ 0.5 µg/mL | CNc1cc(F)cc2c1[nH]c1nc(Oc3cnc(C)nc3)nc(N3CC(N)C(C(=O)OC)C3)c12 (stereo not drawn) [drawing 1825] | 
 |  | 16 µg/mL (≈ 30.7 µM) | 1 µg/mL (≈ 1.92 µM) | CNc1cc(F)cc2c1[nH]c1nc(Oc3cnc(C)nc3)nc(N3CC(N)C(C(=O)N4CCOCC4)C3)c12 (stereo not drawn) [drawing 1827] | 
